{"source": "patent US7115382B1", "about": "“Method for detecting IGFBP-4 protease without detecting IGFBP-4 protease/proMBP Complex” (Mayo Foundation for Medical Education and Research, priority 1999, dated 2006)", "system": "HEK 293 cells", "test": "Flow cytometry of PAPP-A binding to the cell surface", "format": "cell-based, human", "settings": "HEK 293 cells transfected with rPAPP-A cDNA, mAb 234-2 detection", "protocol": "Flow cytometry was used to assess the binding of PAPP-A to the cell surface of HEK 293 cells either transfected with empty expression vector or with the vector containing cDNA encoding rPAPP-A (see Example 4 for a description of vectors and transfections). […] Fifty μl of the cell suspension was incubated with primary antibody (final concentration 5 μg/ml purified PAPP-A specific mAb 234-2) on ice for 30 min. Cells were then washed three times with L15/FBS and incubated with fluorescein isothiocyanate-conjugated goat anti-mouse IgG (heavy and light chain, Zymed Laboratories, San Francisco, Calif.) for 30 min on ice. Cells were fixed in buffer with 1% formaldehyde before flow cytometry on a Becton Dickinson instrument. […] Similar results were obtained with other PAPP-A monoclonal antibodies (234-3, 234-4, 234-5, and 234-7).", "data": [{"substance": "PAPP-A: pregnancy-associated plasma protein-A, the IGF-dependent IGFBP-4 protease", "values": [{"measurement": "Binding to the cell surface", "result": "binds to the surface of HEK 293 cells"}]}]}
